Laboratory results reported in US20240409519A1, “HYDROGENATED QUINOXALINES” (OTSUKA PHARMACEUTICAL CO., LTD., priority 2021, published 2024).

Columns and labels:
serotonin (5-HT) uptake = target: T1, serotonin (5-HT) uptake (Rattus norvegicus, UniProt P31652); test: Serotonin (5-HT) uptake inhibitory activity in rat brain synaptosome; assay type: biochemical; conditions: rat frontal cortex synaptosome, tritium-labeled 5-HT 8 nM; read-out: IC50 (nM), serotonin (5-HT) uptake inhibition
T1 construct: used as crude synaptosomal fraction; from tissue; host or cells: rat frontal cortex, crude synaptosomal fraction
T1 sequence (P31652 whole entry): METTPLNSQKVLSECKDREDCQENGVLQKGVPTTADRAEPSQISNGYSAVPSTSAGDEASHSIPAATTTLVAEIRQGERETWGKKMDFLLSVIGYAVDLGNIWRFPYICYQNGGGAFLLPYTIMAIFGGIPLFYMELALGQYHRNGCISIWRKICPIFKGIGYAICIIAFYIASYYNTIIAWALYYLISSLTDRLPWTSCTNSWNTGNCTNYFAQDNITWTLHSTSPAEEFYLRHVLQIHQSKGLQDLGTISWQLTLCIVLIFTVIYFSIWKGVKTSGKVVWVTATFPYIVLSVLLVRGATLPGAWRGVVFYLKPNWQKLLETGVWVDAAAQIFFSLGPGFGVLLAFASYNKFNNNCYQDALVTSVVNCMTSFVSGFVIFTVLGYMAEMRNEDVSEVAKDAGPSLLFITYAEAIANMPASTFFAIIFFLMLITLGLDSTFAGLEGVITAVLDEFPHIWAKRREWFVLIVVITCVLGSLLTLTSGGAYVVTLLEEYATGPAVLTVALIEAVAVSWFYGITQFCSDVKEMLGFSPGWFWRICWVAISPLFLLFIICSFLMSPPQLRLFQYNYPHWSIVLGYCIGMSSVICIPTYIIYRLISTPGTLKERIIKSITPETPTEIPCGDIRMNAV
Description: (§1) Male Wistar rats were decapitated, each brain was removed, and the frontal cortex was cut out. […] The homogenate was centrifuged at 1000 g at 4° C. for 10 minutes, and the supernatant was further centrifuged at 20000 g at 4° C. for 20 minutes. The pellet was suspended in an incubation buffer (20 mM Hepes buffer (pH 7.4) containing 10 mM glucose, 145 mM sodium chloride, 4.5 mM potassium chloride, 1.2 mM magnesium chloride and 1.5 mM calcium chloride) and used as crude synaptosomal fraction.
(§2) Each well of a 96-well round-bottom plate was used for the uptake reaction in a total volume of 200 μL solution containing purgurin (final concentration 10 μM) and ascorbic acid (final concentration 0.2 mg/mL). In other words, solvent, unlabeled 5-HT or step-diluted test compound was added to each well, and one-tenth of the final volume of the synaptosomal fraction was added to each well, followed by pre-incubation at 37° C. for 10 minutes, and then tritium-labeled 5-HT solution (final concentration 8 nM) was added and the uptake reaction was initiated at 37° C. After 10 minutes, the uptake reaction was terminated by suction filtration onto a 96-well glass fiber filter plate. The filters were rinsed with cold physi-ological saline solution, dried thoroughly, and micro scintillation 0 (Perkin-Elmer) was added thereto. Then, the residual radioactivity on the filters was measured.
The uptake value when only solvent was added was set as 100%, the uptake value when unlabeled 5-HT (final concentration 10 μM) was added as 0% (nonspecific uptake value), and the 50% inhibitory concentration was calculated from the concentration of the test compound and its inhibitory activity.

dopamine (DA) uptake = target: T2, dopamine (DA) uptake (Rattus norvegicus, UniProt P23977); test: Dopamine (DA) uptake inhibitory activity using rat brain synaptosome; assay type: biochemical; conditions: rat striatum synaptosome, tritium-labeled DA 2 nM; read-out: IC50 (nM), dopamine (DA) uptake inhibition
T2 construct: used as crude synaptosomal fraction; from tissue; host or cells: rat striatum, crude synaptosomal fraction
T2 sequence (P23977 whole entry): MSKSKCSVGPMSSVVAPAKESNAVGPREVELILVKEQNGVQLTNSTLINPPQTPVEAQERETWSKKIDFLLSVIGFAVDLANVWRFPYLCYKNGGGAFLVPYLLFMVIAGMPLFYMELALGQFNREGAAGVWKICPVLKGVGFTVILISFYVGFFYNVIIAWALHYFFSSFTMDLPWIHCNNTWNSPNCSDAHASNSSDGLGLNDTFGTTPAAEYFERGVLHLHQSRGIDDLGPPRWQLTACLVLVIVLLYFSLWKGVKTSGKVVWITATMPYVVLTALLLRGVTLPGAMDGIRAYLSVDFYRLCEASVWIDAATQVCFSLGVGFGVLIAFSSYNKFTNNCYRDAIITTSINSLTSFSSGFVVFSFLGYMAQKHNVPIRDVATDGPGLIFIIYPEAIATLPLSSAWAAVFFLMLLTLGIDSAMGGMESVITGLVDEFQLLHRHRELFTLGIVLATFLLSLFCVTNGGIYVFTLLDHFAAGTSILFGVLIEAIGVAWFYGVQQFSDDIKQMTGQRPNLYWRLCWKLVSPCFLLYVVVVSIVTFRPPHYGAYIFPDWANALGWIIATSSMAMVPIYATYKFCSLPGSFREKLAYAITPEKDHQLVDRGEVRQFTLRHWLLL
Description: as §1, with “striatum” for “frontal cortex”
as §2, with “μl” for “μL”, “DA” for “5-HT”, “2” for “8”
The uptake value when only solvent was added was set as 100%, the uptake value when unlabeled DA (final concentration 10 μM) was added as 0% (nonspecific uptake value), and the 50% inhibitory concentration was calculated from the concentration of the test compound and its inhibitory activity.

CYP2C9 = target: T3, CYP2C9 (Homo sapiens, UniProt P11712); test: CYP inhibition test (1): inhibition rate (%) at one concentration, CYP2C9; assay type: in vitro ADME; conditions: human liver microsomes, pH 7.4, probe diclofenac (0.005 mmol/L); test compound 0.01 mmol/L, human liver microsome 0.1 mg/mL, substrate diclofenac, 37° C. 10 minutes; read-out: inhibition rate (%) 2C9
T3 construct: a human liver microsome solution containing three CYP-specific substrates; from tissue; host or cells: human liver microsomes
T3 sequence (P11712 whole entry): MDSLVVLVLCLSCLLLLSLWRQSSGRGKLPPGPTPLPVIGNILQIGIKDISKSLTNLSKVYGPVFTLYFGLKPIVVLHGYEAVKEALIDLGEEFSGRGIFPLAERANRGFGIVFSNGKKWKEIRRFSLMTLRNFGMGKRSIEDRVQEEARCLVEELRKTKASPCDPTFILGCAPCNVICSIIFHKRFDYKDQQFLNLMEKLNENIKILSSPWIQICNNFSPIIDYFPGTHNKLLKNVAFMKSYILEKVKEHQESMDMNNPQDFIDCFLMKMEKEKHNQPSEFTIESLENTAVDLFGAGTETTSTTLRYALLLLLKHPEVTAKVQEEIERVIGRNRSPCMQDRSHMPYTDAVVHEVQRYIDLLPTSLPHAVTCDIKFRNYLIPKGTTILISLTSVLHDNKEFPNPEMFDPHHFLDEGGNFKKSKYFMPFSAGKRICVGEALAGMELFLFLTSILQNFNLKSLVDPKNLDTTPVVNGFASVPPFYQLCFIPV
Description: (§3) A metabolic reaction was initiated by adding and mixing a test compound solution (final concentration 0.01 mmol/L) and a NADH/NADPH solution (final concentration 1 mmol/L) to a human liver microsome solution containing three CYP-specific substrates (final concentration 100 mmol/L potassium phosphate buffer solution (pH 7.4), 5 mmol/L magnesium chloride, 0.1 mg/mL human liver microsome, 0.005 mmol/L diclofenac (for CYP2C9), 0.01 mmol/L bufuralol (for […]), 0.005 mmol/L midazolam (for CYP3A4)). As an internal standard solution, a solution of each of stable isotopes of the metabolites (50 ng/mL [13C6] hydroxy diclofenac, 5 ng/mL [2H9] hydroxy bufuralol, and 5 ng/mL [13C6] hydroxy midazolam (all stable isotopes)) in methanol was prepared and used as a quenching solution.
(§4) Specifically, a metabolic reaction was initiated by adding and mixing 2 μL of a solution of a test compound in acetonitrile (or acetonitrile as a control) to 178 μL of a human liver microsome solution in ice water, followed by preincubation at 37° C. for 1 minute, and then adding 20 μL of a NADH/NADPH solution thereto. After incubation at 37° C. for 10 minutes, 50 μL of the reaction mixture was taken, and then it was added and mixed to 500 μL of a quenching solution to quech the reaction. The mixture was centrifuged (6130 g, 4° C., 10 minutes) and the supernatant was used as a sample for LC-MS/MS.
(§5) Peak area ratio ([peak area of metabolite]/[peak area of corresponding stable isotope]) was calculated for a metabolite and a stable isotope of the metabolite as measurement object. By comparing the peak area ratio of each test compound solution with that of the control, the inhibition rate (%) of each CYP species for each test compound was calculated from (1-[peak area ratio of each test compound solution]/[peak area ratio of control])×100.

CYP3A4 = target: T4, CYP3A4 (Homo sapiens, UniProt P08684); test: CYP inhibition test (1): inhibition rate (%) at one concentration, CYP3A4; assay type: in vitro ADME; conditions: human liver microsomes, pH 7.4, probe midazolam (0.005 mmol/L); test compound 0.01 mmol/L, human liver microsome 0.1 mg/mL, substrate midazolam, 37° C. 10 minutes; read-out: inhibition rate (%) 3A4
T4 construct: a human liver microsome solution containing three CYP-specific substrates; from tissue; host or cells: human liver microsomes
T4 sequence (P08684 whole entry): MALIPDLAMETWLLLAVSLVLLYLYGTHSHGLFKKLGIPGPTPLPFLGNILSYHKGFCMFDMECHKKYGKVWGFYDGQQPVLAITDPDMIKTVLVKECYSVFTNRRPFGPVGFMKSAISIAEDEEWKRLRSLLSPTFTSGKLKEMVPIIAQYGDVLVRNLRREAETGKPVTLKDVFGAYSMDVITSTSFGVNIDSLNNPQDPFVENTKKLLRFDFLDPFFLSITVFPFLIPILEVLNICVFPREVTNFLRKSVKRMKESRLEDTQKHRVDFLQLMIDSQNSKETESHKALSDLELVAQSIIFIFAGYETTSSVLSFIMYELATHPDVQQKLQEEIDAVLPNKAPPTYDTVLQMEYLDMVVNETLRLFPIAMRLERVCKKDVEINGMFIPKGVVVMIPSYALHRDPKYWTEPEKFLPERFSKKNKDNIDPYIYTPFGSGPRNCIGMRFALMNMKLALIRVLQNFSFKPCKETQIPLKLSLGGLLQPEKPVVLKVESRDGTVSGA
Description: as §3, §4, §5

SMILES | IC50 (serotonin (5-HT) uptake) | IC50 (dopamine (DA) uptake) | inhibition at 10 min, 0.01 mmol/L (CYP2C9) | inhibition at 10 min, 0.01 mmol/L (CYP3A4)
CC1(C)CN(c2ccc(OCCO)cc2Cl)[C@H]2CCCC[C@H]2N1 [Example 64, 2-(3-chloro-4-((4aR,8aS)-3,3-dimethyloctahydroquinoxalin-1(2H)-yl)phenoxy)ethan-1-ol 1/2fumarate] | 8.8 nM | 78.9 nM | 10.2% | 3.9%
Cc1cc(N2CC(C)(C)N[C@@H]3CCCC[C@@H]32)cc(F)c1OC(F)(F)CO [Example 58] | 22.9 nM | 58.4 nM | 2.8% | 13.1%
OCCOc1ccc(N2CC3(CCC3)N[C@H]3CCCC[C@@H]32)cc1 [Example 8] | 10 nM | 49.5 nM | 8.1% | 7.1%
CC1(C)CN(c2cc(Cl)c(OC(F)(F)CO)cc2F)[C@@H]2CCCC[C@H]2N1 [Example 76] | 98.3 nM | 60.5 nM | 12.6% | 12.4%
CC1(C)CN(c2ccc(OCCO)c(Cl)c2)[C@H]2CCCC[C@H]2N1 [Example 44, 2-(2-chloro-4-((4aR,8aS)-3,3-dimethyloctahydroquinoxalin-1(2H)-yl)phenoxy)ethan-1-ol 1/2fumarate] | 15.3 nM | 37.5 nM | -11.4% | -10.7%

Other lines, results leading:

IC50 (serotonin (5-HT) uptake) | IC50 (dopamine (DA) uptake) | inhibition at 10 min, 0.01 mmol/L (CYP2C9) | inhibition at 10 min, 0.01 mmol/L (CYP3A4) | SMILES
62.8 nM | 90 nM | 2% | 17.6% | CC1(C)CN(c2ccc(OC(F)(F)CO)c(Cl)c2F)[C@@H]2CCCC[C@H]2N1 [Example 80]
7 nM | 44.5 nM | 15.8% | 17.6% | Cc1c(OC(F)(F)CO)ccc(N2CC(C)(C)N[C@@H]3CCCC[C@@H]32)c1F [Example 70]
9 nM | 60.2 nM | 6.8% | -2.7% | CC1(C)CN(c2ccc(OC(F)(F)CO)cc2F)[C@H]2CCCC[C@H]2N1 [Example 61, 2-(4-((4aR,8aS)-3,3-dimethyloctahydroquinoxalin-1(2H)-yl)-3-fluorophenoxy)-2,2-difluoroethan-1-ol 1/2fumarate]
5.7 nM | 91.4 nM | 14.8% | 19.7% | Cc1c(OC(F)(F)CO)ccc(N2CC(C)(C)N[C@H]3CCCC[C@H]32)c1F [Example 69, 2-(4-((4aS,8aR)-3,3-dimethyloctahydroquinoxalin-1(2H)-yl)-3-fluoro-2-methylphenoxy)-2,2-difluoroethan-1-ol 1/2fumarate]
9.4 nM | 35.3 nM | 9.1% | 9.9% | CC1(C)CN(c2cc(Cl)c(OC(F)(F)CO)cc2F)[C@H]2CCCC[C@@H]2N1 [Example 75]
